From US20230234941A1, “Salts of Compound and Pharmaceutical Compositions Containing the Same” (Shenzhen Forward Pharmaceuticals Co., Limited., priority 2020, published 2023)
Where two headings read alike, the source gives them in different places.

Columns and labels:
Assay type in all cases: physicochemical
[1] = Solid storage stability test; conditions: for Original morphology / Original purity: original solid before storage; for chemical and physical stability after storage (summary): solid/25° C./60% RH/open/1 week and/or solid/60° C./closed container/1 week
Experimental: Each amorphous salt solid was weighed (two 2 mg samples were weighed for purity testing after solid storage stability study, and one 10 mg sample was weighed for XRPD testing after solid storage stability study) and placed in a glass vial. In a 25° C./60% RH solid storage stability test, the amorphous salt solid was placed in a 25° C./60% RH constant temperature and humidity chamber, and placed in the dark for 1 week (i.e. “solid/25° C./60% RH/open/1 week”), and in a 60° C. solid storage stability test, the amorphous salt solid was sealed in an oven at 60° C. and heated for 1 week in the dark (i.e. “solid/60° C./closed container/l week”). Then the sample was taken out for purity testing, crystal form detection and appearance observation, respectively.

[2] = Chemical and physical stability of the salts at the end of the preparation
Excerpt: It is crucial for drug development whether the salts obtained as above have chemical and physical stability at the end of the preparation. The chemical and physical stability of the salts at the end of the preparation includes: […]

[3] = Solid solubility test (2 h and 24 h); conditions: for solubility at 2 h / solubility at 24 h: thermodynamic from solid; for XRPD measured at 2 h: state of sample / solid fraction; for solubility at 24 h: read-out: Solubility measured at 24 h; for XRPD measured at 24 h: 24 h test, state of sample
Experimental: samples were weighed for each amorphous salt solid (equivalent to 20 mg of free base), and 10 mL of the following solvents were respectively added: 0.1N HCl solution (pH 1.0), 50 mM phosphate buffer (pH 4.5), FeSSIF-V1 (pH 5.0), FaSSIF-V1 (pH 6.5) and SGF (pH 2.0), […] The suspension was then centrifuged at 37° C., the supernatant was measured for solubility by HPLC, and the solid fraction was measured for XRPD. The target solubility was at least 2 mg (based on free base)/mL.

[4] = Test BS1: solid/25° C./60% RH/open/1 week
[5] = solid/60° C./closed container/1 week (Test BS1)
[6] = FaSSIF-V1 (pH 6.5) (Test ES4, partly printed ES1)
[7] = FaSSIF-V1 (pH 6.5) (Test ES4, partly printed ES1), 37° C., based on free base
[8] = Test ES1: 0.1N HCl solution (pH 1.0)
[9] = Test ES1: 0.1N HCl solution (pH 1.0), 37° C., based on free base
[10] = Test ES2: 50 mM phosphate buffer (pH 4.5)
[11] = Test ES5: SGF (pH 2.0), 37° C., based on free base
[12] = listed as 1 eq. hydrochloride salt
[13] = listed as amorphous 1 eq. hydrochloride salt
[14] = Test ES2: 50 mM phosphate buffer (pH 4.5), 37° C., based on free base
[15] = Test ES3: FeSSIF-V1 (pH 5.0), 37° C., based on free base
[16] = listed as 2 eq. hydrochloride salt
[17] = listed as amorphous 2 eq. hydrochloride salt
[18] = listed as amorphous 1 eq. mesylate salt

Structure (SMILES)	Purity [1, 4]	Original morphology [1]	Original purity [1]	Purity [1, 5]	pH measured at 2 h [3, 6]	Solubility measured at 2 h [3, 7]	XRPD measured at 2 h [3, 6]	pH measured at 2 h [3, 8]	Solubility measured at 2 h [3, 9]	XRPD measured at 2 h [3, 8]	pH measured at 2 h [3, 10]	XRPD measured at 2 h [3, 10]	pH measured at 2 h ([3]; Test ES3: FeSSIF-V1 (pH 5.0))	Solubility measured at 24 h ([3]; Test ES3: FeSSIF-V1 (pH 5.0))	XRPD measured at 2 h ([3]; Test ES3: FeSSIF-V1 (pH 5.0))	pH measured at 2 h ([3]; Test ES5: SGF (pH 2.0))	Solubility measured at 2 h [3, 11]	XRPD measured at 2 h ([3]; Test ES5: SGF (pH 2.0))	Solubility measured at 2 h [3, 14]	Solubility measured at 2 h [3, 15]	other results
C=CC(=O)Nc1cc(Nc2ncnc(-c3cn(C)c4ccccc34)n2)c(OC)cc1N(C)CCN(C)C [Example 1]	99.6%	amorphous	99.9%	99.9%	(6.8)	>2000 µg/mL	clear solution	(0.8)	>2000 µg/mL	clear solution	(4.6)	clear solution	(4.9)	>2000 µg/mL	clear solution	(2.4)	>2000 µg/mL	clear solution	–	–	physical and chemical stability under storage (in words) ([1]; solid/25° C./60% RH/open/1 week, listed as amorphous free base): good physical and chemical stability; physical and chemical stability under storage (in words) ([1]; solid/60° C./closed container/1 week, listed as amorphous free base): transformed from amorphous to a moderate crystallinity; chemical and physical stability at the end of the preparation ([2]; listed as amorphous free base): chemically and physically stable; solubility at 2 h ([3]; 50 mM phosphate buffer, 37 °C, pH 4.5, aqueous buffer, Test ES2: 50 mM phosphate buffer (pH 4.5), 37° C., based on free base, read-out: Solubility measured at 2 h): > 2000 µg/mL; solubility at 24 h ([3]; FaSSIF-V1, 37 °C, pH 6.5, fassif, Test ES4: FaSSIF-V1 (pH 6.5)): > 2000 µg/mL; solubility at 2 h ([3]; FeSSIF-V1, 37 °C, pH 5, fessif, Test ES3: FeSSIF-V1 (pH 5.0), 37° C., based on free base, read-out: Solubility measured at 2 h): > 2000 µg/mL; solubility at 24 h ([3]; FeSSIF-V1, 37 °C, pH 5, fessif, Test ES3: FeSSIF-V1 (pH 5.0)): > 2000 µg/mL; pH measured at 24 h ([3]; Test ES3: FeSSIF-V1 (pH 5.0)): (5.0); XRPD measured at 24 h ([3]; Test ES3: FeSSIF-V1 (pH 5.0)): clear solution; Solubility measured at 24 h ([3]; Test ES4: FaSSIF-V1 (pH 6.5)): >2000 µg/mL; pH measured at 24 h ([3]; Test ES4: FaSSIF-V1 (pH 6.5)): (6.8); XRPD measured at 24 h ([3]; Test ES4: FaSSIF-V1 (pH 6.5)): clear solution
C=CC(=O)Nc1cc(Nc2ncnc(-c3cn(C)c4ccccc34)n2)c(OC)cc1N(C)CCN(C)C [Example 2]	99.9%	amorphous	99.9%	98.2%	(6.5)	>2000 µg/mL	clear solution	(0.7)	>2000 µg/mL	clear solution	(4.5)	clear solution	(4.8)	–	clear solution	(2.0)	>2000 µg/mL	clear solution	>2000 µg/mL	>2000 µg/mL	chemical and physical stability after storage (summary) [1, 12]: chemically unstable; chemical and physical stability after storage (summary) [1, 13]: chemically unstable; physical and chemical stability under storage (in words) ([1]; solid/25° C./60% RH/open/1 week, listed as amorphous 1 eq. hydrochloride salt): good physical and chemical stability; decrease in purity ([1]; solid/60° C./closed container/1 week): about 2%; chemical and physical stability at the end of the preparation [2, 12]: chemically and physically stable; chemical and physical stability at the end of the preparation [2, 13]: chemically and physically stable; solubility at 2 h ([3]; 37 °C, 2 h solid solubility test, all five solvents, read-out: solubility in all solvents tested): > 2000 µg/mL
C=CC(=O)Nc1cc(Nc2ncnc(-c3cn(C)c4ccccc34)n2)c(OC)cc1N(C)CCN(C)C [Example 3]	99.6%	amorphous	99.9%	99.6%	(6.1)	>2000 µg/mL	clear solution	(0.71	>2000 µg/mL	clear solution	(4.2)	clear solution	(4.8)	–	clear solution	(1.8)	>2000 µg/mL	clear solution	>2000 µg/mL	>2000 µg/mL	chemical and physical stability after storage (summary) [1, 16]: physically unstable; chemical and physical stability after storage (summary) [1, 17]: physically unstable; physical and chemical stability under storage (in words) ([1]; solid/25° C./60% RH/open/1 week, listed as amorphous 2 eq. hydrochloride salt): slight color change and showed a certain hygroscopicity (partial agglomeration); physical and chemical stability under storage (in words) ([1]; solid/60° C./closed container/1 week, listed as amorphous 2 eq. hydrochloride salt): good physical and chemical stability; chemical and physical stability at the end of the preparation [2, 16]: chemically and physically stable; chemical and physical stability at the end of the preparation [2, 17]: chemically and physically stable
C=CC(=O)Nc1cc(Nc2ncnc(-c3cn(C)c4ccccc34)n2)c(OC)cc1N(C)CCN(C)C [Example 4]	99.8%	amorphous	99.9%	99.9%	(6.5)	>2000 µg/mL	clear solution	(0.7)	>2000 µg/mL	clear solution	(4.5)	clear solution	(4.8)	>2000 µg/mL	clear solution	(2.0)	>2000 µg/mL	clear solution	>2000 µg/mL	>2000 µg/mL	chemical and physical stability after storage (summary) ([1]; listed as 1 eq. mesylate salt): chemically and physically stable; chemical and physical stability after storage (summary) [1, 18]: chemically and physically stable; physical and chemical stability under storage (in words) ([1]; solid/25° C./60% RH/open/1 week, listed as amorphous 1 eq. mesylate salt): good physical and chemical stability; physical and chemical stability under storage (in words) ([1]; solid/60° C./closed container/1 week, listed as amorphous 1 eq. mesylate salt): good physical and chemical stability; chemical and physical stability at the end of the preparation ([2]; listed as 1 eq. mesylate salt): chemically and physically stable; chemical and physical stability at the end of the preparation [2, 18]: chemically and physically stable; pH measured at 24 h ([3]; Test ES3: FeSSIF-V1 (pH 5.0)): (5.0); XRPD measured at 24 h ([3]; Test ES3: FeSSIF-V1 (pH 5.0)): clear solution; Solubility measured at 24 h ([3]; Test ES4: FaSSIF-V1 (pH 6.5)): >2000 µg/mL; pH measured at 24 h ([3]; Test ES4: FaSSIF-V1 (pH 6.5)): (6.6); XRPD measured at 24 h ([3]; Test ES4: FaSSIF-V1 (pH 6.5)): clear solution
